Source: US12157730B2, “Heteroaryl derivative, method for producing same, and pharmaceutical composition comprising same as effective component” (VORONOI INC., priority 2019, dated 2024)

Target: T1, Ba/F3 cell EGFR Exon20 ins NPH (Homo sapiens, UniProt P00533, INS773NPH)
T1 construct: expressed in transfected cells; host or cells: Ba/F3
Test: Ba/F3 cell proliferation suppression, EGFR Exon20 ins NPH
Format: cell-based
Details: GI50 class; Ba/F3 cell line with NPH inserted at Exon20 of EGFR; 72 hours
Method in brief: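 Cells were seeded 24 h before dosing and then treated for 72 hours with compound at final concentrations of 0.3 nM to 50 um. Live cells were measured by CellTiter-Glo luminescence, and GI50 values were derived from growth ratio relative to control across three repeats.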

Compound | Ba/F3 (NPH) Activity
C=CC(=O)Nc1cc(Nc2cc(N3OCC[C@@H]3c3ccc(F)c(Cl)c3)ncn2)c(OC)cc1N1CCN(C)CC1 [compound 702, N-(5-((6-((R)-3-(3-chloro-4-fluorophenyl)isoxazolidine-2-yl)pyrimidine-4-yl)amino)-4-methoxy-2-(4-methylpiperazine-1-yl)phenyl)acrylamide] | A (GI50 < 50 nM)
C=CC(=O)Nc1cc(Nc2cc(N3OCC[C@@H]3c3cc(F)cc(F)c3)ncn2)c(OC)cc1N1CCC(N2C[C@H]3CC[C@@H](C2)O3)CC1 [compound 759, N-(2-(4-((1R,5S)-8-oxa-3-azabicyclo [3.2.1]octan-3-yl)piperidine-1-yl)-5-((6-((R)-3-(3,5-difluorophenyl)isoxazolidine-2-yl)pyrimidine-4-yl)amino)-4-methoxyphenyl) acrylamide] | B (50 nM ≤ GI50 < 500 nM)
C=CC(=O)Nc1cc(Nc2cc(N3OCC[C@@H]3c3cccc(Cl)c3Cl)ncn2)c(OC)cc1N1CCOCC1 [compound 517, N-(5-((6-((R)-3-(2,3-dichlorophenyl)isoxazolidine-2-yl)pyrimidine-4-yl)amino)-4-methoxy-2-morpholinophenyl) acrylamide] | A (GI50 < 50 nM)
C#Cc1cccc([C@H]2CCON2c2cc(Nc3cc(NC(=O)C=C)c(N4CCN(C)CC4)cc3OC)ncn2)c1 [compound 617, N-(5-((6-((R)-3-(3-ethynylphenyl)isoxazolidine-2-yl)pyrimidine-4-yl)amino)-4-methoxy-2-(4-methylpiperazine-1-yl)phenyl)acrylamide] | A (GI50 < 50 nM)
C=CC(=O)Nc1cc(Nc2cc(N3OCC[C@@H]3c3cccc(F)c3)ncn2)c(OC)cc1N1CCC(N2CCN(CC)CC2)CC1 [Example 248, N-(2-(4-(4-ethylpiperazine-1-yl)piperidine-1-yl)-5-((6-((R)-3-(3-fluorophenyl)isoxazolidine-2-yl)pyrimidine-4-yl)amino)-4-methoxyphenyl) acrylamide] | A (GI50 < 50 nM)
C=CC(=O)Nc1cc(Nc2cc(N3OCC[C@@H]3c3ccc(F)cc3F)ncn2)c(OC)cc1N1CCN(C(C)C)CC1 [compound 346, N-(5-((6-((R)-3-(2,4-difluorophenyl)isoxazolidine-2-yl)pyrimidine-4-yl)amino)-2-(4-isopropylpiperazine-1-yl)-4-methoxyphenyl) acrylamide] | A (GI50 < 50 nM)
C=CC(=O)Nc1cc(Nc2cc(N3OCC[C@@H]3c3ccc(F)cc3F)ncn2)c(OC)cc1-n1cnc(C)c1 [compound 386, N-(5-((6-((R)-3-(2,4-difluorophenyl)isoxazolidine-2-yl)pyrimidine-4-yl)amino)-4-methoxy-2-(4-methyl-1H-imidazole-1-yl)phenyl)acrylamide] | B (50 nM ≤ GI50 < 500 nM)
C=CC(=O)Nc1cc(Nc2cc(N3OCC[C@@H]3c3ccc(F)cc3F)ncn2)c(OC)cc1N1CCC(N2CCN(C3COC3)CC2)CC1 [Example 197, N-(5-((6-((R)-3-(2,4-difluorophenyl)isoxazolidine-2-yl)pyrimidine-4-yl)amino)-4-methoxy-2-(4-(4-(oxetane-3-yl)piperazine-1-yl)piperidine-1-yl)phenyl)acrylamide] | A (GI50 < 50 nM)
C=CC(=O)Nc1cc(Nc2cc(N3OCC[C@@H]3c3ccc(F)c(F)c3F)ncn2)c(OC)cc1N1CCC(N2C[C@H]3C[C@@H]2CO3)CC1 [compound 575, N-(2-(4-((1R,4R)-2-oxa-5-azabicyclo [2.2.1]heptane-5-yl)piperidine-1-yl)-4-methoxy-5-((6-((R)-3-(2,3,4-trifluorophenyl)isoxazolidine-2-yl)pyrimidine-4-yl)amino)phenyl)acrylamide] | A (GI50 < 50 nM)
C=CC(=O)Nc1cc(Nc2cc(N3OCC[C@@H]3c3cccc(F)c3F)ncn2)c(OC)cc1N1CCC(N2CCOCC2)CC1 [compound 920, N-(5-((6-((R)-3-(2,3-difluorophenyl)isoxazolidine-2-yl)pyrimidine-4-yl)amino)-4-methoxy-2-(4-morpholinopiperidine-1-yl)phenyl)acrylamide] | A (GI50 < 50 nM)
C=CC(=O)Nc1cc(Nc2cc(N3OCC[C@H]3Cc3cccnc3)ncn2)c(OC)cc1N1CCC(N2C[C@H]3C[C@@H]2CO3)CC1 [compound 990, N-(2-(4-((1R,4R)-2-oxa-5-azabicyclo [2.2.1]heptane-5-yl)piperidine-1-yl)-4-methoxy-5-((6-((R)-3-(pyridine-3-ylmethyl)isoxazolidine-2-yl)pyrimidine-4-yl)amino)phenyl)acrylamide] | B (50 nM ≤ GI50 < 500 nM)
C=CC(=O)Nc1cc(Nc2cc(N3OCC[C@@H]3c3ccc(F)c(Cl)c3F)ncn2)c(OC)cc1N1CCC(N2CCN(CC)CC2)CC1 [compound 639, N-(5-((6-((R)-3-(3-chloro-2,4-difluorophenyl)isoxazolidine-2-yl)pyrimidine-4-yl)amino)-2-(4-(4-ethylpiperazine-1-yl)piperidine-1-yl)-4-methoxyphenyl) acrylamide] | A (GI50 < 50 nM)
C=CC(=O)Nc1cc(Nc2cc(N3OCC[C@@H]3c3ccc(Cl)cc3F)ncn2)c(OC)cc1N1CCC(N2CCN(C(C)=O)CC2)CC1 [compound 375, N-(2-(4-(4-acetylpiperazine-1-yl)piperidine-1-yl)-5-((6-((R)-3-(4-chloro-2-fluorophenyl)isoxazolidine-2-yl)pyrimidine-4-yl)amino)-4-methoxyphenyl) acrylamide] | A (GI50 < 50 nM)
C=CC(=O)Nc1cc(Nc2cc(N3OCC[C@@H]3c3cc(F)ccc3F)ncn2)c(OC)cc1N1CCC(N2CCN(C)[C@@H](C)C2)CC1 [compound 850, N-(5-((6-((R)-3-(2,5-difluorophenyl)isoxazolidine-2-yl)pyrimidine-4-yl)amino)-2-(4-((S)-3,4-dimethylpiperazine-1-yl)piperidine-1-yl)-4-methoxyphenyl) acrylamide] | A (GI50 < 50 nM)
C=CC(=O)Nc1cc(Nc2cc(N3OCC[C@@H]3c3c(F)ccc(F)c3Cl)ncn2)c(OC)cc1N1CCC(N2C[C@@H]3C[C@H]2CO3)CC1 [compound 693, N-(2-(4-((1S,4S)-2-oxa-5-azabicyclo[2.2.1]heptane-5-yl)piperidine-1-yl)-5-((6-((R)-3-(2-chloro-3,6-difluorophenyl)isoxazolidine-2-yl)pyrimidine-4-yl)amino)-4-methoxyphenyl) acrylamide] | A (GI50 < 50 nM)
C=CC(=O)Nc1cc(Nc2cc(N3OCC[C@@H]3c3cc(F)ccc3F)ncn2)c(OC)cc1N1CCN(C2CC2)C[C@H]1C [compound 880, N-(2-((R)-4-cyclopropyl-2-methylpiperazine-1-yl)-5-((6-((R)-3-(2,5-difluorophenyl)isoxazolidine-2-yl)pyrimidine-4-yl)amino)-4-methoxyphenyl) acrylamide] | A (GI50 < 50 nM)
C=CC(=O)Nc1cc(Nc2cc(N3OCC[C@@H]3c3ccc(F)c(F)c3)ncn2)c(OC)cc1N1CCN(C)CC1 [compound 458, N-(5-((6-((R)-3-(3,4-difluorophenyl)isoxazolidine-2-yl)pyrimidine-4-yl)amino)-4-methoxy-2-(4-methylpiperazine-1-yl)phenyl)acrylamide] | A (GI50 < 50 nM)
